Measured values from ChEMBL document CHEMBL5620433, “Design and synthesis of new 1,2,3-triazoles derived from eugenol and analogues with in vitro and in vivo activity against Trypanosoma cruzi” (Eur J Med Chem, 2023).
pIC50: −log10 of the molar value. Activity calls are given as the source filed them. The rule behind the calls is not given here.

Experiments:
Trypanosoma cruzi [1] = assay: Antitrypanosomal activity against epimastigote form of Trypanosoma cruzi Y assessed as inhibition of parasite proliferation incubated for 72 hrs by resazurin dye based analysis; type: functional, organism-based
[2] = target: Cruzipain (Trypanosoma cruzi) (UniProt P25779); assay: Inhibition of recombinant Trypanosoma cruzi Cruzain using Z-FR-AMC as substrate at 100 uM measured for 5 mins by fluorescence based analysis
Chain of Cruzipain (Trypanosoma cruzi) (P25779 123-467 limits assumed): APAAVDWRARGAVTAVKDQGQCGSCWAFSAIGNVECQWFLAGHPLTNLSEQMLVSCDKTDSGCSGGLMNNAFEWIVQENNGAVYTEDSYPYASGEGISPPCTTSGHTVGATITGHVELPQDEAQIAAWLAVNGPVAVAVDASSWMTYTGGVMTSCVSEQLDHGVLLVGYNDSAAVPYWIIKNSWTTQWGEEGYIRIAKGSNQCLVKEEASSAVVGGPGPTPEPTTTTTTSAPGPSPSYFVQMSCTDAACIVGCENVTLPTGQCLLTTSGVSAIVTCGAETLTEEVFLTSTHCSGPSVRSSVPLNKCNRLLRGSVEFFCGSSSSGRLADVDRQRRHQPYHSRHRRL

[3] = Selectivity index, ratio of CC50 for cytotoxicity against rat H9c2 cells to IC50 for antitrypanosomal activity against epimastigote form of Trypanosoma cruzi Y; type: toxicity, cell-based; conditions: read-out: Ratio IC50
[4] = (§1) Cytotoxicity against rat H9c2 cells assessed as reduction in cell viability measured after 72 hrs by resazurin due based analysis; type: toxicity; conditions: rat, H9c2 cells
[5] = target: Cruzipain (Trypanosoma cruzi) (UniProt P25779); assay: Inhibition of recombinant Trypanosoma cruzi Cruzain using Z-FR-AMC as substrate at 100 uM preincubated with enzyme for 10 mins and measured for 5 mins by fluorescence based analysis; conditions: time 15.0 min
H9c2 = assay: as §1; type: toxicity; conditions: h9c2
Trypanosoma cruzi [6] = assay: Antitrypanosomal activity against trypomastigote form of Trypanosoma cruzi Y assessed as inhibition of parasite viability incubated for 24 hrs by light microscopy; type: functional, organism-based
[7] = Toxicity in po dosed Swiss mouse infected with trypomastigote form of Trypanosoma cruzi Y assessed as diarrhea administered via gavage for 7 days from day 5 post-infection and measured on day 13 post-infection; type: organism-based; conditions: in vivo, 192 h, time 8 day
[8] = Toxicity in Swiss mouse infected with trypomastigote form of Trypanosoma cruzi Y assessed as increase in weight gain at 10 to 100 mg/kg, po administered via gavage for 7 days from day 5 post-infection; type: organism-based; conditions: in vivo, 168 h, dose 10-100 mg/kg, time 7 day
[9] = Toxicity in po dosed Swiss mouse infected with trypomastigote form of Trypanosoma cruzi Y assessed as bristly fur administered via gavage for 7 days from day 5 post-infection and measured on day 13 post-infection; type: organism-based; conditions: in vivo, 192 h, time 8 day
Trypanosoma cruzi [10] = assay: Anti-trypanosomal activity against trypomastigote form of Trypanosoma cruzi Y infected in Swiss mouse assessed as reduction in parasitemia at 10 to 100 mg/kg, po administered via gavage for 7 days from day 5 post-infection; type: functional, organism-based; conditions: dose 10-100 mg/kg, time 7.0 day
[11] = Hepatotoxicity in Swiss mouse infected with trypomastigote form of Trypanosoma cruzi Y assessed as plasma aspartate aminotransferase level at 50 to 100 mg/kg, po administered via gavage for 7 days from day 5 post-infection by spectrophotometry; type: toxicity, organism-based; conditions: in vivo, 168 h, dose 50-100 mg/kg, time 7 day
[12] = Toxicity in po dosed Swiss mouse infected with trypomastigote form of Trypanosoma cruzi Y assessed as mortality administered via gavage for 7 days from day 5 post-infection and measured on day 13 post-infection; type: organism-based; conditions: in vivo, 192 h, time 8 day
[13] = Toxicity in po dosed Swiss mouse infected with trypomastigote form of Trypanosoma cruzi Y assessed as apathy administered via gavage for 7 days from day 5 post-infection and measured on day 13 post-infection; type: organism-based; conditions: in vivo, 192 h, time 8 day
[14] = Hepatotoxicity in Swiss mouse infected with trypomastigote form of Trypanosoma cruzi Y assessed as plasma alanine aminotransferase level at 50 to 100 mg/kg, po administered via gavage for 7 days from day 5 post-infection by spectrophotometry; type: toxicity, organism-based; conditions: in vivo, 168 h, dose 50-100 mg/kg, time 7 day

| SMILES | pIC50 (Trypanosoma cruzi [1]) | inhibition [2] [%] | inhibition [5] [%] | selectivity ratio [3] | IC50 at 72 h [4] [µM] | pIC50 (H9c2) | pIC50 (Trypanosoma cruzi [6]) | Activity [7] | Activity [8] | Activity [9] | Activity (Trypanosoma cruzi [10]) | Activity [11] | Activity [12] | Activity [13] | Activity [14] |
| --- | --- | --- | --- | --- | --- | --- | --- | --- | --- | --- | --- | --- | --- | --- | --- |
| CCCc1ccc(OCC(O)Cn2ccnn2)c(OC)c1 (racemic) | 3.67 | 7.2 | 7.2 | 3.5 | 743 |  |  |  |  |  |  |  |  |  |  |
| C=CCc1ccc(OCC(O)Cn2cc(COc3ccc(C(C)C)cc3)nn2)c(OC)c1 (racemic) | 3.08 | 7.2 | 7.2 | 0.5 | 480 |  |  |  |  |  |  |  |  |  |  |
| C=CCc1ccc(OCC(O)Cn2cc(COc3ccc(OC)cc3)nn2)c(OC)c1 (racemic) | 3.72 | 7.2 | 7.2 | 8.9 |  | 2.77 |  |  |  |  |  |  |  |  |  |
| C=CCc1ccc(OCC(O)Cn2cc(COc3ccc([N+](=O)[O-])cc3)nn2)c(OC)c1 (racemic) | 3.83 | 7.2 | 7.2 | 2.1 | 323 |  |  |  |  |  |  |  |  |  |  |
| COc1ccccc1OCC(O)Cn1cc(COc2ccc(Cl)cc2)nn1 (racemic) | 3.92 | 7.2 | 7.2 | 3.1 | 380 |  |  |  |  |  |  |  |  |  |  |
| CCCc1ccc(OCC(O)Cn2cc(COc3ccc(Cl)cc3)nn2)c(OC)c1 (racemic) | 4.71 | 29.3 | 29.3 | 6.6 | 132 |  | 4.68 | Non-Toxic | Non-Toxic | Toxic | inactive | Non-Toxic | Non-Toxic | Non-Toxic | Non-Toxic |
| CCCc1ccc(OCC(=O)Cn2cc(-c3ccccc3)nn2)c(OC)c1 | 3.25 | 7.2 | 7.2 | 1.9 |  | 2.97 |  |  |  |  |  |  |  |  |  |

Second part, led by results:

| pIC50 (Trypanosoma cruzi [1]) | inhibition [2] [%] | inhibition [5] [%] | SMILES | selectivity ratio [3] | IC50 at 72 h [4] [µM] | pIC50 (H9c2) | pIC50 (Trypanosoma cruzi [6]) | Activity [7] | Activity [8] | Activity [9] | Activity (Trypanosoma cruzi [10]) | Activity [11] | Activity [12] | Activity [13] | Activity [14] |
| --- | --- | --- | --- | --- | --- | --- | --- | --- | --- | --- | --- | --- | --- | --- | --- |
| 4.46 | 7.2 | 7.2 | CCCc1ccc(OCC(O)Cn2cc(COc3ccc(OC)cc3)nn2)c(OC)c1 (racemic) | 9.1 | 315 |  |  |  |  |  |  |  |  |  |  |
| 4.43 | 7.2 | 7.2 | C=CCc1ccc(OCC(O)Cn2cc(COc3ccc(Cl)cc3)nn2)c(OC)c1 (racemic) | 1.5 | 58.1 |  |  |  |  |  |  |  |  |  |  |
| 4.22 | 7.2 | 7.2 | COc1ccccc1OCC(O)Cn1cc(COc2ccc([N+](=O)[O-])cc2)nn1 (racemic) | 2.1 | 134 |  |  |  |  |  |  |  |  |  |  |
| 4.39 | 7.2 | 7.2 | CCCc1ccc(OCC(O)Cn2cc(COc3ccc(C(C)C)cc3)nn2)c(OC)c1 (racemic) | 7.3 | 302 |  |  |  |  |  |  |  |  |  |  |
